The record followed here is patent US3954871A, “1-(4-Alkylthiopheny)-2-substituted amino-alcohols and their salts” (Continental Pharma, priority 1969, dated 1976).

Counter-ions that a name gives are not always drawn. Like-named read-outs stand apart in the source and are kept apart here.

The subject of series [1] is isolated auricles of guinea pigs. The following applies: dose 1.10 - 6 g/ml of bath.
Series [2] can be described thus: Local anaesthesic activity. In kind it is in vivo. The following applies: read-out: Local anaesthesic activity ED50.
The next series has as its system mice. Description: Anti-arrhythmic activity in mice. It is filed as in vivo. The note with it: Mus musculus, po, 0.5 h, read-out: Anti-arrhythmic activity: number of mice protected in relation with the number of tested mice. How it is done:
^(4) Number of mice protected in relation with the number of tested
mice (dose = 100 mg/kg per os; recording 30 min. after administration)

A short description of another series: in vivo. The note with it: mouse, ip.
The mark [3] stands for this setting: 100 mg/kg per os, recording 30 min. after administration.

Turning to `CSc1ccc(C(O)CN2CCCCC2)cc1C` (stereo not drawn) [CH3 S--, 3CH3 (amine drawn)], the “Protection against anoxia, activity” value in series [1] is “+”. `CSc1ccc(C(O)CNC2CCCCC2)cc1C` (stereo not drawn) [CH3 S--, 3CH3 (amine drawn)]: in series [1], the “Protection against anoxia, activity” value was “++”. The term ED50 denotes the dose that gives a 50% effect, or the effect in half of the subjects. Regarding `CCN(CC)CCOC(=O)c1ccc(N)cc1` [Procaine, reference compound], the ED50 in series [2] was determined as 1.8 mg/kg. For the compound `C=C[C@H]1C[N@@]2CC[C@H]1C[C@@H]2[C@@H](O)c1ccnc2ccc(OC)cc12` [Quinidine, reference compound], the responders at 100 mg/kg in the series on mice (setting [3]) stood at 20%.

`CSc1ccc(C(O)CNC(C)(C)C)cc1Cl` (stereo not drawn) [Table III No. 2]: the responders at 100 mg/kg with mice worked out at 10%. By LD50 is commonly meant the dose expected to kill half of the subjects tested. Higher therefore signals lower toxicity. `CSc1ccc(C(O)C(C)NC(C)(C)C)cc1Cl` (stereo not drawn) [Table III No. 3]: the responders at 100 mg/kg in the series on mice is 10%. Also, in series [2], the ED50 is greater than 5 mg/kg. For the same compound, the LD50 in the series “in vivo” came to 440 mg/kg.

As for `CCC(C)NC(C)C(O)c1ccc(SC)c(Cl)c1` (stereo not drawn) [Table III No. 8], the LD50 in the series “in vivo” came out at 150 mg/kg. Consider `CSc1ccc(C(O)CNC(C)(C)C)cc1C` (stereo not drawn) [Table III No. 12], for which the “Protection against anoxia, activity” value in series [1] was “+”.

Regarding `CCCCNCC(O)c1ccc(SC)c(Cl)c1` (stereo not drawn) [Table III No. 15], in “in vivo”, the LD50 amounted to 110 mg/kg. Consider `CSc1ccc(C(O)C(C)N2CCC(C)CC2)cc1C` (stereo not drawn) [Table III No. 20], for which, in the series “in vivo”, the LD50 stood at 91 mg/kg. In the series “in vivo”, `CSc1ccc(C(O)CNC(C)Cc2ccccc2)cc1Cl` (stereo not drawn) [Table III No. 22] showed an LD50 of 55 mg/kg.

On to `CCC(C(O)c1ccc(SC)c(Cl)c1)N1CCOCC1` (stereo not drawn) [Table III No. 28], for which, in series [2], the ED50 is greater than 5 mg/kg. Regarding `CCC(C)NCC(O)c1ccc(SC)c(C)c1` (stereo not drawn) [Table III No. 33, 1-(3-Methyl-4-methylthiophenyl)-2-secbutylaminoethanol], in the series with mice, the responders at 100 mg/kg stood at 40%. In addition, in series [2], the ED50 was roughly 5 mg/kg. On to `CCc1cc(C(O)CNC(C)(C)C)ccc1SC` (stereo not drawn) [Table III No. 50], for which, in the series on mice, the responders at 100 mg/kg stood at 50%. The ED50 in series [2] was greater than 5 mg/kg. As for `CCc1cc(C(O)CNC(C)CC)ccc1SC` (stereo not drawn) [Table III No. 51, 1-(3-Ethyl-4-methylthiophenyl)-2-secbutylaminoethanol], the responders at 100 mg/kg with mice was 60%. Also, in series [2], the ED50 was greater than 5 mg/kg. Consider `CSc1ccc(C(O)CNC(C)C)cc1F` (stereo not drawn) [Table III No. 58, 1-(3-fluoro-4-methylthiophenyl)-2-isopropylaminoethanol], for which the responders at 100 mg/kg with mice came to 20%. The ED50 in series [2] is greater than 5 mg/kg. As to `CSc1c(C)cc(C(O)CNC(C)C)cc1Cl` (stereo not drawn) [Table III No. 64], in series [2], the ED50 came out at 4.1 mg/kg. The same compound yielded an LD50 in “in vivo” of 182 mg/kg. The matching figures for `CCSc1ccc(C(O)CNC(C)(C)C)cc1C` (stereo not drawn) [Table III No. 73]: roughly 5 mg/kg and 220 mg/kg. Compound `CCSc1ccc(C(O)CNC2CCCCC2)cc1C` (stereo not drawn) [Table III No. 77] gave an LD50 in “in vivo” of 91 mg/kg. As for `CCCCCCCCSc1ccc(C(O)CNC(C)CC)cc1C` (stereo not drawn) [Table III No. 117], the responders at 100 mg/kg in the series with mice amounted to 30%. Consider `CSc1ccc(C(O)CN2CCCCC2)cc1C` (stereo not drawn) [Table IV No. 8], for which the responders at 100 mg/kg with mice (setting [3]) is 20%. Moreover, the ED50 in series [2] (ED50, interval in brackets) came out at 1.6 mg/kg. With `CSc1ccc(C(O)CNC2CCCCC2)cc1C` (stereo not drawn) [Table IV No. 24], the responders at 100 mg/kg in the series with mice stood at 40%. For the same compound, in series [2], the ED50 was greater than 5 mg/kg.

Take `CSc1ccc(C(O)CN2CCC(C)CC2)cc1C` (stereo not drawn) [Table IV No. 27]: the responders at 100 mg/kg in the series with mice (setting [3]) worked out at 20%. For the same compound, in series [2] (ED50, interval in brackets), the ED50 was greater than 5 mg/kg.

Regarding `COc1cc(C(O)CNC(C)(C)C)ccc1SC` (stereo not drawn) [Table IV No. 33, 1-(3-Methoxy-4-methylthiophenyl)-2-tertbutylaminoethanol hydrochloride], in the series with mice, the responders at 100 mg/kg turned out to be 20%.

Consider `CCSc1ccc(C(O)CNC2CCCCC2)cc1C` (stereo not drawn) [Table IV No. 51], for which the ED50 in series [2] was greater than 5 mg/kg.

On to `CCCCSc1ccc(C(O)CN2CCC(C)CC2)cc1C` (stereo not drawn) [Table IV No. 63], for which the responders at 100 mg/kg in the series on mice (setting [3]) amounted to 20%. Further, the ED50 in series [2] (ED50, interval in brackets) came out at 4.1 mg/kg. With `CCCCSc1ccc(C(O)CNC(C)C(O)c2ccccc2)cc1C` (stereo not drawn) [Table IV No. 66], the responders at 100 mg/kg in the series on mice is 20%. In “in vivo”, `CSc1ccc(C(O)CNC(C)Cc2ccccc2)cc1C` (stereo not drawn) [compound 31] gave an LD50 of 75 mg/kg. As to `CCCC(NC(C)CC)C(O)c1ccc(SC)c(Cl)c1` (stereo not drawn) [compound 40], the ED50 in series [2] is roughly 5 mg/kg. With `CSc1ccc(C(O)CN)cc1C` (stereo not drawn) [compound 41], the LD50 in the series “in vivo” was 150 mg/kg.

Take `CCCCCCCCNCC(O)c1ccc(SC)c(CC)c1` (stereo not drawn) [compound 45]: in the series “in vivo”, the 50% lethal dose (LD50) was 75 mg/kg. This LD50 is about 2-fold lower than that of the compound before. For `CCc1cc(C(O)CNC(C)(C)C)ccc1SC` (stereo not drawn) [compound 50], the median lethal dose (LD50) in “in vivo” was determined as 150 mg/kg. `CSc1c(C)cc(C(O)CN2CCCCC2)cc1Cl` (stereo not drawn) [compound 62]: in “in vivo”, the LD50 stood at 220 mg/kg. This LD50 and that of the compound before are within 1.5-fold of each other. In the case of `CCSc1ccc(C(O)CNC(C)C)cc1C` (stereo not drawn) [compound 74], the LD50 in the series “in vivo” is 150 mg/kg. Turning to `CCCCNCC(O)c1ccc(SCC)c(C)c1` (stereo not drawn) [compound 80], in series [2], the ED50 is greater than 5 mg/kg. The same compound returned an LD50 in the series “in vivo” of 110 mg/kg. As to `CCSc1ccc(C(O)CNCCc2ccccc2)cc1C` (stereo not drawn) [compound 81], in the series “in vivo”, the LD50 was 75 mg/kg.

`CCSc1ccc(C(O)CNC(C)Cc2ccccc2)cc1C` (stereo not drawn) [compound 83]: the LD50 in “in vivo” was determined as 110 mg/kg. As to `Cc1cc(C(O)CN2CCC(C)CC2)ccc1SCC(C)C` (stereo not drawn) [compound 85], the LD50 in “in vivo” was 182 mg/kg. On the same count and under the same terms, with `Cc1cc(C(O)CN2CCCCC2)ccc1SCC(C)C` (stereo not drawn) [compound 86] the figure was 110 mg/kg; with `CCCCSc1ccc(C(O)CNC(C)(C)C)cc1C` (stereo not drawn) [compound 90], 91 mg/kg; with `CCCCSc1ccc(C(O)CN2CCCCC2)cc1C` (stereo not drawn) [compound 93], 182 mg/kg.

Consider `CCCCSc1ccc(C(O)CN(C)C)cc1C` (stereo not drawn) [compound 94], for which the LD50 in the series “in vivo” was 150 mg/kg.

In turn, `CCCCSc1ccc(C(O)CN2CCCC(C)C2)cc1C` (stereo not drawn) [compound 95] showed an LD50 in “in vivo” of 150 mg/kg. `CCCCSc1ccc(C(O)CN2CCC(C)CC2)cc1C` (stereo not drawn) [compound 96] displayed an LD50 in “in vivo” of 182 mg/kg. In the series “in vivo”, `CCCCNCC(O)c1ccc(SCCCC)c(C)c1` (stereo not drawn) [compound 97] showed an LD50 of 110 mg/kg. The compound `CCCCCSc1ccc(C(O)CNC(C)(C)C)cc1C` (stereo not drawn) [compound 102] showed an LD50 in the series “in vivo” of 91 mg/kg.

Turning to `CCCCCSc1ccc(C(O)CNCCCC)cc1C` (stereo not drawn) [compound 104], in “in vivo”, the median lethal dose (LD50) stood at 75 mg/kg. The LD50 values of the last two compounds are within 1.5-fold of each other. In the case of `CCCCCCSc1ccc(C(O)CNC(C)(C)C)cc1C` (stereo not drawn) [compound 107], the LD50 in “in vivo” turned out to be 110 mg/kg. This LD50 and that of the compound before are within 1.5-fold of each other. As for `CCCCCCSc1ccc(C(O)CN2CCCCC2)cc1C` (stereo not drawn) [compound 108], the median lethal dose (LD50) in “in vivo” is 182 mg/kg. `CCCCCCSc1ccc(C(O)CN2CCOCC2)cc1C` (stereo not drawn) [compound 109]: in the series “in vivo”, the LD50 worked out at 600 mg/kg. This LD50 is about 3.3-fold higher than that of the compound before. Turning to `CCCCCCSc1ccc(C(O)CNCCC)cc1C` (stereo not drawn) [compound 112], the LD50 in “in vivo” is 364 mg/kg. `Cc1cc(C(O)CN2CCCCC2)ccc1SC(C)C` (stereo not drawn) [compound 124] showed an LD50 in the series “in vivo” of 150 mg/kg. For `Cc1cc(C(O)CNC(C)(C)C)ccc1SC(C)C` (stereo not drawn) [compound 125], the 50% lethal dose (LD50) in “in vivo” stood at 150 mg/kg. `Cc1cc(C(O)CN2CCOCC2)ccc1SC(C)C` (stereo not drawn) [compound 126] yielded an LD50 in “in vivo” of 440 mg/kg. Still for that read-out and setting: with `Cc1cc(C(O)CNC(C)C)ccc1SC(C)C` (stereo not drawn) [compound 127] the figure was 182 mg/kg; with `CCCCNCC(O)c1ccc(SC(C)C)c(C)c1` (stereo not drawn) [compound 129], 46 mg/kg. Turning to `Cc1cc(C(O)CNC2CCCCC2)ccc1SC(C)C` (stereo not drawn) [compound 130], the LD50 in the series “in vivo” was determined as 75 mg/kg.

Compound `CCCCCCCCNCC(O)c1ccc(SC(C)C)c(C)c1` (stereo not drawn) [compound 131] had an LD50 in the series “in vivo” of 86 mg/kg. This LD50 and that of the compound before are within 1.5-fold of each other. With `Cc1cc(C(O)CN2CCC(C)CC2)ccc1SC(C)C` (stereo not drawn) [compound 133], the LD50 in the series “in vivo” was found to be 110 mg/kg.
